Consider 33 molecules from patent US9050345B2, “Pyrrolotriazines as potassium ion channel inhibitors” (BRISTOL-MYERS SQUIBB COMPANY, priority 2013, dated 2015).

T1 sequence (P22460 whole entry): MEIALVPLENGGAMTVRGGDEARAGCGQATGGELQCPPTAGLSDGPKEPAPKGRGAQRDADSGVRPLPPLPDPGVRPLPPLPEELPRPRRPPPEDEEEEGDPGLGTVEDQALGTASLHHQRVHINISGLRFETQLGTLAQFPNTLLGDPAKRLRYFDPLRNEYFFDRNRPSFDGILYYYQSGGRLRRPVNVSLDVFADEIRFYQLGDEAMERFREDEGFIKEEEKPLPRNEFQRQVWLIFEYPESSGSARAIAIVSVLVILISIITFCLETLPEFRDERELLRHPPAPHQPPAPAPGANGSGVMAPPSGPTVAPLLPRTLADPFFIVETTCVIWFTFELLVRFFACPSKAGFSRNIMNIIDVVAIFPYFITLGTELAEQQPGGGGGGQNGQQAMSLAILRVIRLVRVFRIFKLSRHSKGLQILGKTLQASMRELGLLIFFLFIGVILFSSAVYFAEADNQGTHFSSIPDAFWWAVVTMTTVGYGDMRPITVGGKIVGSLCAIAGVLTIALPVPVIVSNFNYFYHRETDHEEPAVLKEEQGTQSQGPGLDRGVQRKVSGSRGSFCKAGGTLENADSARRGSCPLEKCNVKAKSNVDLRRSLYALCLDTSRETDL

The first assay addresses T1, human KV 1.5 (IKur) (Homo sapiens, UniProt P22460).
T1 construct: expressed in transfected cells
Nature of the assay: block of IKur current in patch clamped L-929 cells expressing human Kv1.5. The assay is classed as cell-based. The settings on record: 0.3 μM; patch clamped mammalian L-929 cells stably expressing human Kv1.5. A general note: The patch-clamp technique gives a direct electrical read-out from membranes.
For `CC(Nc1nc(-c2cncc(S(N)(=O)=O)c2)nn2ccc(-c3ccccc3)c12)c1ccc(F)cc1` (stereo not drawn) [Example 77, 5-(4-(1-(4-fluorophenyl)ethylamino)-5-phenylpyrrolo[1,2-f] [1,2,4]triazin-2-yl)pyridine-3-sulfonamide], the “KV1_5% Inh L929 @0.3 μM” value was found to be 95.70%.
Turning to `O=C(NCC(O)CO)c1cncc(-c2nc(NCc3ccccc3)c3c(-c4ccccc4)ccn3n2)c1` (stereo not drawn) [Example 97, 5-(4-(benzylamino)-5-phenylpyrrolo [1,2-f][1,2,4]triazin-2-yl)-N-(2,3-dihydroxypropyl) nicotinamide], the “KV1_5% Inh L929 @0.3 μM” value worked out at 96.86%.
`NS(=O)(=O)c1cncc(-c2nc(NCC3CCCCO3)c3c(-c4ccccc4)ccn3n2)c1` (stereo not drawn) [Example 102, 5-(5-phenyl-4-((tetrahydro-2H-pyran-2-yl)methylamino)pyrrolo[1,2-f][1,2,4]triazin-2-yl)pyridine-3-sulfonamide]: the “KV1_5% Inh L929 @0.3 μM” value came to 98.89%.

Staying with this assay, now noted: L929, 0.3 μM; patch clamped mammalian L-929 cells stably expressing human Kv1.5; read-out: KV1_5% Inh L929 @0.3 μM.
As to `O=C(O)CC(=O)Nc1cncc(-c2nc(NCc3ccccc3)c3c(-c4ccccc4)ccn3n2)c1` [Example 78, 3-(5-(4-(benzylamino)-5-phenylpyrrolo [1,2-f][1,2,4]triazin-2-yl)pyridin-3-ylamino)-3-oxopropanoic acid], the inhibition at 0.3 µM stood at 22.9%.
Consider `NS(=O)(=O)c1cncc(-c2nc(NCc3c(F)cccc3F)c3c(-c4ccccc4)ccn3n2)c1` [Example 79, 5-(4-(2,6-difluorobenzylamino)-5-phenylpyrrolo [1,2-f][1,2,4]triazin-2-yl)pyridine-3-sulfonamide], for which the inhibition at 0.3 µM turned out to be 96%.
On to `N#Cc1ccc(-c2nc(NCc3ccccc3)c3c(-c4ccccc4)ccn3n2)cn1` [Example 80, 5-(4-(-benzylamino)-5-phenylpyrrolo [1,2-f][1,2,4]triazin-2-yl) picolinonitrile], for which the inhibition at 0.3 µM worked out at 96.9%.
`NC(=O)c1ccc(-c2nc(NCc3ccccc3)c3c(-c4ccccc4)ccn3n2)cn1` [Example 81, 5-(4-(benzylamino)-5-phenylpyrrolo [1,2-f][1,2,4]triazin-2-yl) picolinamide]: the inhibition at 0.3 µM came out at 97%.
For `O=C(O)c1ccc(-c2nc(NCc3ccccc3)c3c(-c4ccccc4)ccn3n2)cn1` [Example 82, 5-(4-(benzylamino)-5-phenylpyrrolo [1,2-f][1,2,4]triazin-2-yl) picolinic acid], the inhibition at 0.3 µM came out at 17.6%.
Regarding `NS(=O)(=O)c1cncc(-c2nc(NC(c3ccccc3)C(F)(F)F)c3c(-c4ccccc4)ccn3n2)c1` (stereo not drawn) [Example 83, 5-(5-phenyl-4-(2,2,2-trifluoro-1-phenylethylamino)pyrrolo [1,2-f][1,2,4]triazin-2-yl)pyridine-3-sulfonamide], the inhibition at 0.3 µM is 89.8%.
For the molecule `O=C(c1cncc(-c2nc(NCc3ccccc3)c3c(-c4ccccc4)ccn3n2)c1)N1CCOCC1` [Example 84, (5-(4-(benzylamino)-5-phenylpyrrolo [1,2-f][1,2,4]triazin-2-yl)pyridin-3-yl)(morpholino) methanone], the inhibition at 0.3 µM worked out at 85.9%.
Same read-out and setting: the figure for `COCCNC(=O)c1cncc(-c2nc(NCc3ccccc3)c3c(-c4ccccc4)ccn3n2)c1` [Example 85, 5-(4-(benzylamino)-5-phenylpyrrolo [1,2-f][1,2,4]triazin-2-yl)-N-(2-methoxyethyl) nicotinamide] is 96.3%.
Turning to `COC(=O)c1cccc(-c2nc(NCc3ccccn3)c3c(-c4ccccc4)ccn3n2)c1` [Example 86, methyl 3-(5-phenyl-4-(pyridin-2-ylmethylamino)pyrrolo[1,2-f][1,2,4]triazin-2-yl)benzoate], the inhibition at 0.3 µM came to 86.3%.
As for `O=C(O)c1cccc(-c2nc(NCc3ccccn3)c3c(-c4ccccc4)ccn3n2)c1` [Example 87, 3-(5-phenyl-4-(pyridin-2-ylmethylamino)pyrrolo [1,2-f][1,2,4]triazin-2-yl)benzoic acid], the inhibition at 0.3 µM came to 91%.
As to `N#Cc1cncc(-c2nc(NC(c3ccccc3)C(F)(F)F)c3c(-c4ccccc4)ccn3n2)c1` (stereo not drawn) [Example 88, 5-(5-phenyl-4-(-2-,2,2-trifluoro-1-phenylethylamino)pyrrolo [1,2-f][1,2,4]triazin-2-yl)nicotinonitrile], the inhibition at 0.3 µM was 27.2%.
Same read-out and setting: the result for `CCOC(=O)CCNC(=O)c1cncc(-c2nc(NCc3ccccc3)c3c(-c4ccccc4)ccn3n2)c1` [Example 89, ethyl 3-(5-(4-(benzylamino)-5-phenylpyrrolo [1,2-f][1,2,4]triazin-2-yl)nicotinamido) propanoate] reads 97%; that for `CC1(C)OCC(CNC(=O)c2cncc(-c3nc(NCc4ccccc4)c4c(-c5ccccc5)ccn4n3)c2)O1` (stereo not drawn) [Example 90, 5-(4-(benzylamino)-5-phenylpyrrolo [1,2-f][1,2,4]triazin-2-yl)-N-((2,2-dimethyl-1,3-dioxolan-4-yl)methyl)nicotinamide], 96%.
The same measure, in the same setting: the figure for `CC(=O)NS(=O)(=O)c1cncc(-c2nc(NCc3ccccc3)c3c(-c4ccccc4)ccn3n2)c1` [Example 91, N-(5-(4-(benzylamino)-5-phenylpyrrolo [1,2-f][1,2,4]triazin-2-yl)pyridin-3-ylsulfonyl)acetamide] is 61.7%; for `N#Cc1cc(-c2nc(NCc3ccccc3)c3c(-c4ccccc4)ccn3n2)ccn1` [Example 92, 4-(4-(benzylamino)-5-phenylpyrrolo [1,2-f][1,2,4]triazin-2-yl) picolinonitrile] it is 88.2%.
With `COc1ncc(-c2nc(NCc3ccccc3)c3c(-c4ccccc4)ccn3n2)cc1S(=O)(=O)NC(C)(C)C` [Example 93, 5-(4-(benzylamino)-5-phenylpyrrolo [1,2-f][1,2,4]triazin-2-yl)-N-tert-butyl-2-methoxypyridine-3-sulfonamide], the inhibition at 0.3 µM was 41%.
In the case of `COc1ncc(-c2nc(NCc3ccccc3)c3c(-c4ccccc4)ccn3n2)cc1S(N)(=O)=O` [Example 94, 5-(4-(benzylamino)-5-phenylpyrrolo [1,2-f][1,2,4]triazin-2-yl)-2-methoxypyridine-3-sulfonamide], the inhibition at 0.3 µM is 95.8%.
For `O=C(NCC(O)CO)c1cncc(-c2nc(NCc3ccccc3)c3c(-c4ccccc4)ccn3n2)c1` (stereo not drawn) [Example 96, 5-(4-(benzylamino)-5-phenylpyrrolo [1,2-f][1,2,4]triazin-2-yl)-N-(2,3-dihydroxypropyl) nicotinamide], the inhibition at 0.3 µM is 95.7%.
As for `O=C(O)CCNC(=O)c1cncc(-c2nc(NCc3ccccc3)c3c(-c4ccccc4)ccn3n2)c1` [Example 98, 3-(5-(4-(benzylamino)-5-phenylpyrrolo [1,2-f][1,2,4]triazin-2-yl)nicotinamido) propanoic acid], the inhibition at 0.3 µM came to 55.3%.
Still for that read-out and setting: the result for `O=C(O)/C=C/c1cncc(-c2nc(NCc3ccccc3)c3c(-c4ccccc4)ccn3n2)c1` [Example 99, (E)-3-(5-(4-(benzylamino)-5-phenylpyrrolo [1,2-f][1,2,4]triazin-2-yl)pyridin-3-yl)acrylic acid] reads 92.2%; that for `C1=C(c2nc(NCc3ccccc3)c3c(-c4ccccc4)ccn3n2)CCOC1` [Example 100, N-benzyl-2-(3,6-dihydro-2H-pyran-4-yl)-5-phenylpyrrolo [1,2-f][1,2,4] triazin-4-amine], 96.9%; that for `NS(=O)(=O)c1cncc(-c2nc(NCC3CCCCO3)c3c(-c4ccccc4)ccn3n2)c1` (stereo not drawn) [Example 101, 5-(5-phenyl-4-((tetrahydro-2H-pyran-2-yl)methylamino)pyrrolo [1,2-f][1,2,4]triazin-2-yl)pyridine-3-sulfonamide], 93.6%.
Turning to `O=C(c1cncc(-c2nc(NCc3ccccc3)c3c(-c4ccccc4)ccn3n2)c1)N(CCO)CCO` [Example 103, 5-(4-(benzylamino)-5-phenylpyrrolo[1,2-f] [1,2,4]triazin-2-yl)-N, N-bis(2-hydroxyethyl) nicotinamide], the inhibition at 0.3 µM was determined as 72.2%.
Same read-out and setting: the result for `NS(=O)(=O)c1cncc(-c2nc(NCc3ccccn3)c3c(-c4cccc(F)c4)ccn3n2)c1` [Example 104, 5-(5-(3-fluorophenyl)-4-(pyridin-2-ylmethylamino)pyrrolo[1,2-f][1,2,4]triazin-2-yl)pyridine-3-sulfonamide] reads 95.7%; that for `COc1ccc(-c2ccn3nc(-c4cncc(S(N)(=O)=O)c4)nc(NCc4ccccn4)c23)cc1` [Example 105, 5-(5-(4-methoxyphenyl)-4-(pyridin-2-ylmethylamino)pyrrolo[1,2-f][1,2,4]triazin-2-yl)pyridine-3-sulfonamide], 89.3%.
Turning to `NS(=O)(=O)c1cncc(-c2nc(NCc3ccccn3)c3c(-c4ccc(N5CCOCC5)cc4)ccn3n2)c1` [Example 106, 5-(5-(4-morpholinophenyl)-4-(pyridin-2-ylmethylamino)pyrrolo[1,2-f][1,2,4]triazin-2-yl)pyridine-3-sulfonamide], the inhibition at 0.3 µM was found to be 16%.
Turning to `N#Cc1ccc(-c2ccn3nc(-c4cncc(S(N)(=O)=O)c4)nc(NCc4ccccn4)c23)cc1` [Example 107, 5-(5-(-4-cyanophenyl)-4-(pyridin-2-ylmethylamino)pyrrolo[1,2-f][1,2,4]triazin-2-yl)pyridine-3-sulfonamide], the inhibition at 0.3 µM worked out at 15.6%.
On to `NS(=O)(=O)c1cncc(-c2nc(NCc3cccnn3)c3c(-c4ccccc4)ccn3n2)c1` [Example 108, 5-(5-phenyl-4-(pyridazin-3-ylmethylamino)pyrrolo [1,2-f][1,2,4]triazin-2-yl)pyridine-3-sulfonamide], for which the inhibition at 0.3 µM was found to be 72%.
The same measure, in the same setting: the result for `NC(=O)c1cccc(-c2nc(NCc3ccccn3)c3c(-c4ccccc4)ccn3n2)c1` [Example 109, 3-(5-phenyl-4-(pyridin-2-ylmethylamino)pyrrolo[1,2-f][1,2,4]triazin-2-yl)benzamide] reads 98.2%; that for `CS(=O)(=O)Nc1cncc(-c2nc(NCc3ccccn3)c3c(-c4ccc(F)cc4)ccn3n2)c1` [Example 110, N-(5-(5-(4-fluorophenyl)-4-(pyridin-2-ylmethylamino)pyrrolo[1,2-f] [1,2,4]triazin-2-yl)pyridin-3-yl) methanesulfonamide], 81.4%.
